Measured values from patent US10131717B2, “Topically administered, skin-penetrating glycosaminoglycan formulations suitable for use in cosmetic and pharmaceutical applications” (London Health Sciences Centre Research Inc., priority 2010, dated 2018).

What was measured:
[1] = system: human dermal fibroblasts; assay: Hyaluronan cell coats on cultured human dermal fibroblasts (fluorescent nanosphere exclusion); assay type: cell-based; conditions: hyaluronan 500 μg/mL (350 kDa) or HA-PE-1 25 μg/mL, 1 hour; compared to PBS control; FIG. 1
Method: The suitability of the present compositions was assessed by determining its ability to encase/surround cultured dermal fibroblasts grown from a punch biopsy of human skin. Punch biopsies were placed in a sterile tissue culture dish (35×10 mm, tissue culture dish) and cut with small (e.g., 19 G) sterile needles into small fragments. The fragments were allowed to dry briefly (e.g., no more than 10 minutes) to the bottom of the tissue culture dish to promote adherence of the tissue fragments. Dulbecco's modified Eagles Medium (DMEM), supplements with 10% fetal calf serum (FCS) was then gently added and the culture is then placed in a humidified 37° C. incubator supplemented with 5% CO2 for approximately one week. […]
In the images shown in FIG. 1, the hyaluronan cell coat is observed as a dark space since small fluorescent beads are excluded by the coat as denoted by the arrow within the image. Cells without coats […] are entirely covered by the fluorescent beads.

[2] = system: senescent human fibroblasts; assay: Percent of cells with hyaluronan coats and coat size in senescent human fibroblasts; assay type: cell-based; conditions: FIG. 2
Method: Modified hyaluronan (HA-PE-1), prepared according to Example 2, or hyaluronan alone (350 kDA; 10 mg/mL stock solution in saline) was added to senescent human fibroblasts in increasing concentrations (0-100 μg/mL).
The effect of the addition of modified hyaluronan (HA-PE-1; 50 μg/mL) vs. hyaluronan alone (50 μg/mL) on the cell coat area of the cells was quantified using image analysis (Elements 3.1, Nikon). […] Values are means and S.E.M. for 10 samples.

[3] = system: female BL6 wild-type mice; assay: Comparison of ability to penetrate the skin barrier of mice (hyaluronan staining; treated vs untreated area); assay type: in vivo, mouse
Text: HA-PE-2, prepared as described in Example 3, hyaluronan mixed with, but not covalently linked to, lipids in the lecithins present in Example 3 (see Example 1), and hyaluronan alone (no additional phospholipid), were each formulated with a NIVEA Creme cosmetic base cream (1:1, v/v) as described in Example 4. The creams were then applied to the shaved backs (0.18 g HA-PE-2/application, 40×30 mm shaved area) of 9-month old female BL6 wild-type mice once daily for 4 days. After this time, one group of animals was euthanized and processed according to the procedure described in Example 9. A second group of animals were left without further treatment for an additional […] and euthanized/processed as described in Example 9 on day 7.
Since the amount of endogenous hyaluronan in skin can vary with location, internal controls were designed to evaluate hyaluronan staining of treated and control skin were developed to confirm the difference between the treated vs. untreated skin area. HA-PE-2 and control creams (hyaluronan only) were applied to the shaved backs of mice as previously described. Areas of treatment were marked (hair in the adjacent untreated margins was removed with Nair™ and the punch aligned to include the treated and untreated region; tissue punches were orientated in small tissue baskets to keep the tissue in the correct orientation throughout processing and marked with a histology marker pen) and tissue was harvested/processed as previously described (Example 9).

[4] = system: skin barrier; conditions: Kaya et al.; cited from earlier work

hyaluronan
size of the hyaluronan coat (exclusion of fluorescent beads) [1]: little additional effect | concentration at which the percentage of cells with coats reached a plateau ([2]; 0-100 μg/mL): 10 µg/mL | percentage of cells that exhibited hyaluronan coats ([2]; increasing concentrations 0-100 μg/mL): fewer cells with hyaluronan coats | hyaluronan staining / hyaluronan penetrating the skin barrier ([3]; creams once daily for 4 days, p<0.000001, FIG. 9, 10): negligible amounts of hyaluronan penetrating the skin barrier | hyaluronan staining in keratinocytes following cessation of treatment ([3]; day 7, treatment stopped after day 4, FIG. 9, 10): remained negligible | hyaluronan staining at the application edge, treated vs untreated area of skin ([3]; internal control, p<0.000001, FIG. 11, 12): a distinct margin of staining was not observed | retention in skin of topically applied hyaluronan (literature) [4]: poorly retained in the epidermal layer
